Reference: PubChem BioAssay AID248 (DTP/NCI, 2004)
“And” between values parts separate entries of the source, which are not always exact repeats. Equal entries are not always repeated. Toxic doses and inconclusive results are not listed. No stated cut-off is given here; in the data, active means T/C of 150% or more; inactive means T/C below 125%.

Tested on: L1210 leukemia ip in BDF1 mice, survival T/C
Assay: NCI In Vivo Anticancer Drug Screen. Data for tumor model L1210 Leukemia (intraperitoneal) in B6D2F1 (BDF1) mice
Conditions: endpoint: mean survival time, higher = longer survival
How it was run: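 Value reflects the ratio of survival in compound-treated mice to survival in vehicle-treated controls, with both groups carrying the same transplanted tumor.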

Measured: T/C

O=NN(CCF)C(=O)NC1CCCCC1
active: dose: 3.12 mg/kg/injection, schedule: Q03HX008 (ip), vehicle: carboxymethylcellulose (CMC) 188 % of control | dose: 3.12 mg/kg/injection, schedule: Q03HX032 (ip), vehicle: carboxymethylcellulose (CMC) 416 % of control | dose: 3.12 mg/kg/injection, schedule: Q03HX032 (oral), vehicle: carboxymethylcellulose (CMC) 177 % of control | dose: 6.0 mg/kg/injection, schedule: Q02DX008 (ip), vehicle: other 157 % of control and 160 % of control | dose: 6.25 mg/kg/injection, schedule: Q03HX008 (oral), vehicle: carboxymethylcellulose (CMC) 605 % of control | dose: 6.25 mg/kg/injection, schedule: Q03HX032 (oral), vehicle: carboxymethylcellulose (CMC) 288 % of control | dose: 6.25 mg/kg/injection, schedule: Q## X006 (oral), vehicle: carboxymethylcellulose (CMC) 305 % of control | dose: 6.75 mg/kg/injection, schedule: Q01DX015 (ip), vehicle: other 448 % of control and 489 % of control | dose: 9.0 mg/kg/injection, schedule: Q02DX008 (ip), vehicle: other 345 % of control and 397 % of control | dose: 10.0 mg/kg/injection, schedule: Q01DX015 (ip), vehicle: other 424 % of control and 524 % of control | dose: 12.0 mg/kg/injection, schedule: Q## X004 (ip), vehicle: other 370 % of control and 608 % of control | dose: 12.5 mg/kg/injection, schedule: Q01DX001 (ip), vehicle: carboxymethylcellulose (CMC) 183 % of control | dose: 12.5 mg/kg/injection, schedule: Q01DX001 (sc), vehicle: other 157 % of control | dose: 12.5 mg/kg/injection, schedule: Q01DX013 (ip), vehicle: carboxymethylcellulose (CMC) 183 % of control | dose: 12.5 mg/kg/injection, schedule: Q03HX032 (oral), vehicle: carboxymethylcellulose (CMC) 255 % of control | dose: 12.5 mg/kg/injection, schedule: Q## X006 (ip), vehicle: carboxymethylcellulose (CMC) 155 % of control | dose: 13.5 mg/kg/injection, schedule: Q01DX001 (ip), vehicle: other 187 % of control | dose: 13.5 mg/kg/injection, schedule: Q01DX001 (oral), vehicle: other 178 % of control and 183 % of control | dose: 13.5 mg/kg/injection, schedule: Q02DX008 (ip), vehicle: other 456 % of control and 470 % of control | dose: 13.5 mg/kg/injection, schedule: Q## X001 (ip), vehicle: other 247 % of control | dose: 13.5 mg/kg/injection, schedule: Q## X001 (oral), vehicle: other 253 % of control | dose: 14.0 mg/kg/injection, schedule: Q## X032 (ip), vehicle: other 341 % of control | dose: 15.0 mg/kg/injection, schedule: Q01DX001 (ip), vehicle: carboxymethylcellulose (CMC) 174 % of control | dose: 15.0 mg/kg/injection, schedule: Q01DX015 (ip), vehicle: other 158 % of control and 438 % of control | dose: 16.2 mg/kg/injection, schedule: Q01DX001 (ip), vehicle: other 314 % of control | dose: 18.0 mg/kg/injection, schedule: Q## X004 (ip), vehicle: other 601 % of control and 682 % of control | dose: 20.0 mg/kg/injection, schedule: Q01DX001 (ip), vehicle: carboxymethylcellulose (CMC) 250 % of control | dose: 20.0 mg/kg/injection, schedule: Q02DX008 (ip), vehicle: other 380 % of control and 649 % of control | dose: 22.0 mg/kg/injection, schedule: Q## X032 (ip), vehicle: other 240 % of control | dose: 23.0 mg/kg/injection, schedule: Q01DX001 (ip), vehicle: other 238 % of control | dose: 25.0 mg/kg/injection, schedule: Q01DX001 (ip), vehicle: carboxymethylcellulose (CMC) 192 % of control | dose: 25.0 mg/kg/injection, schedule: Q01DX001 (oral), vehicle: carboxymethylcellulose (CMC) 616 % of control and 733 % of control | dose: 25.0 mg/kg/injection, schedule: Q01DX001 (sc), vehicle: carboxymethylcellulose (CMC) 216 % of control | dose: 25.0 mg/kg/injection, schedule: Q01DX001 (sc), vehicle: other 317 % of control | dose: 25.0 mg/kg/injection, schedule: Q01DX005 (oral), vehicle: carboxymethylcellulose (CMC) 344 % of control | dose: 25.0 mg/kg/injection, schedule: Q## X006 (ip), vehicle: carboxymethylcellulose (CMC) 733 % of control | dose: 25.0 mg/kg/injection, schedule: Q## X006 (oral), vehicle: carboxymethylcellulose (CMC) 355 % of control | dose: 27.0 mg/kg/injection, schedule: Q01DX001 (ip), vehicle: other 241 % of control and 302 % of control | dose: 27.0 mg/kg/injection, schedule: Q01DX001 (oral), vehicle: other 264 % of control and 289 % of control | dose: 27.0 mg/kg/injection, schedule: Q## X001 (ip), vehicle: other 447 % of control | dose: 27.0 mg/kg/injection, schedule: Q## X001 (oral), vehicle: other 280 % of control and 426 % of control | dose: 27.0 mg/kg/injection, schedule: Q## X004 (ip), vehicle: other 412 % of control and 594 % of control | dose: 30.0 mg/kg/injection, schedule: Q01DX001 (ip), vehicle: carboxymethylcellulose (CMC) 322 % of control | dose: 30.0 mg/kg/injection, schedule: Q02DX008 (ip), vehicle: other 153 % of control and 256 % of control | dose: 36.0 mg/kg/injection, schedule: Q01DX001 (ip), vehicle: other 529 % of control | dose: 40.0 mg/kg/injection, schedule: Q## X004 (ip), vehicle: other 209 % of control and 600 % of control | dose: 41.0 mg/kg/injection, schedule: Q## X001 (oral), vehicle: other 383 % of control | dose: 45.0 mg/kg/injection, schedule: Q01DX001 (ip), vehicle: carboxymethylcellulose (CMC) 344 % of control | dose: 50.0 mg/kg/injection, schedule: Q01DX001 (oral), vehicle: carboxymethylcellulose (CMC) 716 % of control | dose: 50.0 mg/kg/injection, schedule: Q01DX001 (sc), vehicle: carboxymethylcellulose (CMC) 733 % of control | dose: 50.0 mg/kg/injection, schedule: Q01DX005 (oral), vehicle: carboxymethylcellulose (CMC) 200 % of control | dose: 50.0 mg/kg/injection, schedule: Q04DX004 (ip), vehicle: carboxymethylcellulose (CMC) 183 % of control | dose: 50.0 mg/kg/injection, schedule: Q04DX004 (oral), vehicle: carboxymethylcellulose (CMC) 205 % of control | dose: 50.0 mg/kg/injection, schedule: Q## X006 (ip), vehicle: carboxymethylcellulose (CMC) 733 % of control | dose: 54.0 mg/kg/injection, schedule: Q01DX001 (ip), vehicle: carboxymethylcellulose (CMC) 282 % of control | dose: 54.0 mg/kg/injection, schedule: Q01DX001 (oral), vehicle: other 352 % of control | dose: 54.0 mg/kg/injection, schedule: Q## X001 (ip), vehicle: other 421 % of control | dose: 54.0 mg/kg/injection, schedule: Q## X001 (oral), vehicle: other 226 % of control | dose: 60.0 mg/kg/injection, schedule: Q## X004 (ip), vehicle: other 200 % of control | dose: 67.0 mg/kg/injection, schedule: Q01DX001 (ip), vehicle: carboxymethylcellulose (CMC) 289 % of control | dose: 100.0 mg/kg/injection, schedule: Q01DX001 (oral), vehicle: carboxymethylcellulose (CMC) 166 % of control and 244 % of control | dose: 200.0 mg/kg/injection, schedule: Q01DX001 (oral), vehicle: carboxymethylcellulose (CMC) 155 % of control
inactive: dose: 0.33 mg/kg/injection, schedule: Q#B X003 (ip), vehicle: other 109 % of control | dose: 0.66 mg/kg/injection, schedule: Q#B X003 (ip), vehicle: other 119 % of control | dose: 0.93 mg/kg/injection, schedule: Q01DX001 (ip), vehicle: carboxymethylcellulose (CMC) 102 % of control | dose: 1.33 mg/kg/injection, schedule: Q#B X003 (ip), vehicle: other 121 % of control | dose: 1.56 mg/kg/injection, schedule: Q03HX032 (ip), vehicle: carboxymethylcellulose (CMC) 111 % of control | dose: 1.87 mg/kg/injection, schedule: Q01DX001 (ip), vehicle: carboxymethylcellulose (CMC) 102 % of control | dose: 2.97 mg/kg/injection, schedule: Q01DX015 (ip), vehicle: other 96 % of control and 117 % of control | dose: 3.12 mg/kg/injection, schedule: Q01DX001 (sc), vehicle: other 122 % of control | dose: 3.75 mg/kg/injection, schedule: Q01DX001 (ip), vehicle: carboxymethylcellulose (CMC) 112 % of control | dose: 5.0 mg/kg/injection, schedule: Q01DX001 (ip), vehicle: carboxymethylcellulose (CMC) 108 % of control | dose: 6.25 mg/kg/injection, schedule: Q01DX001 (sc), vehicle: other 117 % of control | dose: 6.25 mg/kg/injection, schedule: Q01DX013 (ip), vehicle: carboxymethylcellulose (CMC) 122 % of control | dose: 6.25 mg/kg/injection, schedule: Q## X006 (ip), vehicle: carboxymethylcellulose (CMC) 111 % of control | dose: 32.0 mg/kg/injection, schedule: Q## X032 (ip), vehicle: other 105 % of control | dose: 48.0 mg/kg/injection, schedule: Q## X032 (ip), vehicle: other 114 % of control and 120 % of control | dose: 50.0 mg/kg/injection, schedule: Q## X006 (oral), vehicle: carboxymethylcellulose (CMC) 116 % of control | dose: 100.0 mg/kg/injection, schedule: Q04DX004 (oral), vehicle: carboxymethylcellulose (CMC) 122 % of control

Cc1nnc(Cl)c2ccccc12
inactive: dose: 100.0 mg/kg/injection, schedule: Q01DX001 (ip), vehicle: saline 95 % of control

C=C1C(=O)OC2CCC3OC3CCC12 (configuration not stated) (tested in a mixture with another compound)
inactive: dose: 100.0 mg/kg/injection, schedule: Q04DX003 (ip), vehicle: saline 103 % of control | dose: 200.0 mg/kg/injection, schedule: Q04DX003 (ip), vehicle: saline 95 % of control
